Data as given in patent US10189845B2, “4,6-substituted-pyrazolo[1,5-a]pyrazines as janus kinase inhibitors” (ARRAY BIOPHARMA INC., priority 2014, dated 2019).
Where a name gives a salt, the structure may show the parent alone. Read-outs that look alike come from different tables or passages of the source.

Key:
Format in all cases: biochemical
JAK3 = JAK3 (Homo sapiens (Human), UniProt P52333); test: JAK3 Inhibition Assay (Example D, Omnia kinase fluorescence peptide substrate assay)
Procedure, shortened: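 Mixture held 2 nM JAK3, 1 mM ATP and 10 μM Omnia Y7 peptide in 25 mM HEPES pH 7.4, 10 mM MgCl2, 0.01% Triton X-100, 1 mM DTT, 2% DMSO final. Sox fluorescence (ex 360/em 485 nm) was read every 50 s for 45 min. IC50 came from a 4-parameter logistic fit of percent of control.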

JAK2 = JAK2 (Homo sapiens (Human), UniProt O60674); test: JAK2 Inhibition Assay (Example C, Omnia kinase fluorescence peptide substrate assay); conditions: JAK2 Enzyme IC50 1 mM ATP, averaged IC50 ranges
Procedure, shortened: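 4 nM JAK2 with 1 mM ATP and 10 μM Omnia Y7 peptide in 25 mM HEPES pH 7.4, 10 mM MgCl2, 0.01% Triton X-100, 1 mM DTT, 2% DMSO. Sox fluorescence (ex 360/em 485 nm) read every 50 s for 45 min; IC50 from 4-parameter fit of percent of control.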

Human Tyk2 kinase domain = Human Tyk2 kinase domain (Homo sapiens (Human), UniProt P29597); test: Tyk2 Inhibition Assay (Example A, Omnia kinase fluorescence peptide substrate assay); conditions: TYK2 Enzyme IC50 1 mM ATP, averaged IC50 ranges
Procedure, shortened: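 Omnia Sox-peptide kinetic fluorescence assay (ex 360/em 485 nm, read every 50 s for 45 min) with 1 nM human Tyk2 kinase domain (aa 886–1187, His tag cleaved, baculovirus-expressed), 1 mM ATP, 8 μM Omnia Y12 peptide, in 25 mM HEPES pH 7.4, 10 mM MgCl2, 0.01% Triton X-100, 1 mM DTT, 2% DMSO. IC50 from 4-parameter logistic fit of percent of control.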

JAK1 = JAK1 (Homo sapiens (Human), UniProt P23458); test: JAK1 Inhibition Assay (Example B, Omnia kinase fluorescence peptide substrate assay)
Procedure, shortened: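 Recombinant human JAK1 (12.5 nM) with 1 mM ATP and 8 μM Omnia Y12 Sox-peptide in 25 mM HEPES pH 7.4, 10 mM MgCl2, 0.01% Triton X-100, 1 mM DTT, 2% DMSO final. Phosphorylation read kinetically (ex 360/em 485 nm, 45 min); IC50 from 4-parameter fit of percent of control.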

[1] = JAK1 Enzyme IC50 1 mM ATP, 1 mM ATP, averaged IC50 ranges

Sequence of JAK3 (P52333 whole entry): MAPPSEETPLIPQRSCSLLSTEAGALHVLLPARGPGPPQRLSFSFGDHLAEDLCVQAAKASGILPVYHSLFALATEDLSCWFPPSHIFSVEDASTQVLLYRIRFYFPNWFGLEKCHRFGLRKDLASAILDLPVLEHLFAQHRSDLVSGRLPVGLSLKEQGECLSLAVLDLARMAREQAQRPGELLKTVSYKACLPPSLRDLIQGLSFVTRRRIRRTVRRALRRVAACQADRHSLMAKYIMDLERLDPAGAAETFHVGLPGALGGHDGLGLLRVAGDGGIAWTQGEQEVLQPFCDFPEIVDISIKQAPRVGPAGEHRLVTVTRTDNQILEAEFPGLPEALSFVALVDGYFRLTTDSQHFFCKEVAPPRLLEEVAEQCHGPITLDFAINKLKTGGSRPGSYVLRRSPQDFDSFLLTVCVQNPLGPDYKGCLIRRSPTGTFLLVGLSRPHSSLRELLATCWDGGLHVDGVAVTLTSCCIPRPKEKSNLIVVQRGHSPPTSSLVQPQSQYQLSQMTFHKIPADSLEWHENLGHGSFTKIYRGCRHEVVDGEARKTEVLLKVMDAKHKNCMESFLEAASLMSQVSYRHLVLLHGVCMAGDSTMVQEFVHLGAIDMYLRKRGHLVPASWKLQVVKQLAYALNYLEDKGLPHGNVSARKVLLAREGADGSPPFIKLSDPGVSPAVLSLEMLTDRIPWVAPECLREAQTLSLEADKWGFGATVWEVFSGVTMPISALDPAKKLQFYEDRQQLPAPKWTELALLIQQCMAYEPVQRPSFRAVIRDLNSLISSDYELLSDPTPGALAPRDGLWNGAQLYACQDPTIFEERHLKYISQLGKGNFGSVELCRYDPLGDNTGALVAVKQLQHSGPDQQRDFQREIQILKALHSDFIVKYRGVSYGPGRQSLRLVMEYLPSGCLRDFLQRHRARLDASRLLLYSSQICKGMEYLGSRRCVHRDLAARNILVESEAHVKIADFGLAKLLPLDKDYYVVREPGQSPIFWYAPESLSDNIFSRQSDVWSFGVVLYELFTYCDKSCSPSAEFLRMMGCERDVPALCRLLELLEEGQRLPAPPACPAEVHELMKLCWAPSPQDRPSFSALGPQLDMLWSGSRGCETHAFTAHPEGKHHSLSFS
Sequence of JAK1 (P23458 whole entry): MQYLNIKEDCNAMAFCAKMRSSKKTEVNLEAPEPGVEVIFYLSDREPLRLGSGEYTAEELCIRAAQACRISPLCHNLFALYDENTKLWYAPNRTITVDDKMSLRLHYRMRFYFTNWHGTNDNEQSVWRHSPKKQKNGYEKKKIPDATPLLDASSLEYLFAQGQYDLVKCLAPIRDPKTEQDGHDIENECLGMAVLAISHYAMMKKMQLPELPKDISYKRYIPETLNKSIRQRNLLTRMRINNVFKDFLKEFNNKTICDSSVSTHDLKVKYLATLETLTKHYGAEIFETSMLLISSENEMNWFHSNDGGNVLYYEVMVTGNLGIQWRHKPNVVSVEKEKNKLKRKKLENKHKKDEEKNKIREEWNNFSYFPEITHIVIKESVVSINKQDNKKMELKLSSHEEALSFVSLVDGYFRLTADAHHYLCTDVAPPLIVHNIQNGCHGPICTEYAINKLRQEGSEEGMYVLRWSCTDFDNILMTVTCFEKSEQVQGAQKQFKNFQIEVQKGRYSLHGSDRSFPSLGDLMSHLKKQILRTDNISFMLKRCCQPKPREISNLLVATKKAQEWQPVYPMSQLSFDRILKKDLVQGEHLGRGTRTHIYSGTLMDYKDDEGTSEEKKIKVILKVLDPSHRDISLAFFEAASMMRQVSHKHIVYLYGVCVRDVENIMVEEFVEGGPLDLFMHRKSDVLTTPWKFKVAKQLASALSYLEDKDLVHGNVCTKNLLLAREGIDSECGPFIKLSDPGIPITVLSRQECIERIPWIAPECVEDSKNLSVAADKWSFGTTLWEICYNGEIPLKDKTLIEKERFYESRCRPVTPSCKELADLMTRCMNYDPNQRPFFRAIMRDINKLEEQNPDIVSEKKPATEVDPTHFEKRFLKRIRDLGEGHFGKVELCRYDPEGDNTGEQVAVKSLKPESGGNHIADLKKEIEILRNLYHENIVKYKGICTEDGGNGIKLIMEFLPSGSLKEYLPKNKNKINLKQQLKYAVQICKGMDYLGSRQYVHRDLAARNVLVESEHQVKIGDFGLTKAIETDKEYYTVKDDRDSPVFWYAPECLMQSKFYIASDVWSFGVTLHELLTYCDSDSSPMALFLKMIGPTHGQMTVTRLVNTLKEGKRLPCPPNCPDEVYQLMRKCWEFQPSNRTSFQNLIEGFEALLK
Sequence of JAK2 (O60674 whole entry): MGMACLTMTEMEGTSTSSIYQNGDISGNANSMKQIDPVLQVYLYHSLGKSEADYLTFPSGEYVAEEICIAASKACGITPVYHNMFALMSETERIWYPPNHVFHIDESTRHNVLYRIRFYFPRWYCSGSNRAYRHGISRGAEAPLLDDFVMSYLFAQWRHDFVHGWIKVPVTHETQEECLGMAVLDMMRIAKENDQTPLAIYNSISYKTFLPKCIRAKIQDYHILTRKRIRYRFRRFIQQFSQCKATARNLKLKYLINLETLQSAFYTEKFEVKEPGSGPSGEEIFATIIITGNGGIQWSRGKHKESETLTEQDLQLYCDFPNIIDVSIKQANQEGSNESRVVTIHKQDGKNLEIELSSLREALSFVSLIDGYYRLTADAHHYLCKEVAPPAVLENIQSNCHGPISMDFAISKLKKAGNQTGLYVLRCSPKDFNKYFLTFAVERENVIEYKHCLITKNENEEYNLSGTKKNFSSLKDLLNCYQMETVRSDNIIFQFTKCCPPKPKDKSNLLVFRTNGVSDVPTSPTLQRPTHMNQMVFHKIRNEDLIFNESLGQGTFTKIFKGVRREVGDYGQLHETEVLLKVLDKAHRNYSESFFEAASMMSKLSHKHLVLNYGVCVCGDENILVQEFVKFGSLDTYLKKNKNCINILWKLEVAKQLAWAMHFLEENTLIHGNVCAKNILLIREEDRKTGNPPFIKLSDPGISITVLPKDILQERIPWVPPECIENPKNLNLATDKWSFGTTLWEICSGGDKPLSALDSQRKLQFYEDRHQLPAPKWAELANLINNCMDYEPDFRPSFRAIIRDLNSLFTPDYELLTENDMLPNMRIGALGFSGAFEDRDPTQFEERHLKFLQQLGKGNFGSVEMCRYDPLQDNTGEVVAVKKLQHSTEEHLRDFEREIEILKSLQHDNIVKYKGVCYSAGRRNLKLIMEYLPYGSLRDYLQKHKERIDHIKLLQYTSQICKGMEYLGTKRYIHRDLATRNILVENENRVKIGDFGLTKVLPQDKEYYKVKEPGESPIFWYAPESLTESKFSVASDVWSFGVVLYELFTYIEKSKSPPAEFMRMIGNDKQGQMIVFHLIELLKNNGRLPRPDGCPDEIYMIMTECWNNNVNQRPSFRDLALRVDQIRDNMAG
Sequence of Human Tyk2 kinase domain (P29597 886-1187): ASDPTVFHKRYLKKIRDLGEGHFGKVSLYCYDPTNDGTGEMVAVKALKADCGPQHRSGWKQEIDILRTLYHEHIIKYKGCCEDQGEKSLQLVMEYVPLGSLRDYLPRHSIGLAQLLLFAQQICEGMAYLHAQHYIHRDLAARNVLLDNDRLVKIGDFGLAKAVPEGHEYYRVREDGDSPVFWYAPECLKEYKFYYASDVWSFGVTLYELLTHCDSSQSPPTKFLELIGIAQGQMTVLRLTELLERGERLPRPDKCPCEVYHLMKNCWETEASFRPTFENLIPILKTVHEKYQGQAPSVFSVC

Structure (SMILES)	IC50 (JAK3) [µM]	IC50 (JAK2) [µM]	IC50 (Human Tyk2 kinase domain) [µM]	IC50 (JAK1) [µM]	IC50 (JAK1; [1]) [µM]
CCC(CC)n1cc(-c2nc(-c3cnn(C[C@@H](CN)OC)c3)cn3nccc23)cn1 (single isomer, unassigned) [Example 148]	1 to 10	0.1 to 1	0.1 to 1	1 to 10	
CCC(CC)n1cc(-c2nc(-c3cnn(C[C@@H](O)CNC)c3)cn3nccc23)cn1 [Example 102, (S)-1-(methylamino)-3-(4-(4-(1-(pentan-3-yl)-1H-pyrazol-4-yl)pyrazolo[1,5-a]pyrazin-6-yl)-1H-pyrazol-1-yl)propan-2-ol]	1 to 10	0.01 to 0.1	0.1 to 1		1 to 10
CCC(CC)n1cc(-c2nc(-c3cnn(CCS(=O)(=O)N(C)C)c3)cn3nccc23)cn1 [Example 23, N,N-dimethyl-2-(4-(4-(1-(pentan-3-yl)-1H-pyrazol-4-yl)pyrazolo[1,5-a]pyrazin-6-yl)-1H-pyrazol-1-yl)ethanesulfonamide]	1 to 10	0.01 to 0.1	0.01 to 0.1	0.1 to 1	
CC[C@@H]1CCC[C@@H]1n1cc(-c2nc(-c3cnn(C[C@@H](O)CO)c3)cn3nccc23)cn1 (single isomer, unassigned) [Example 207]	0.1 to 1	< 0.01	0.01 to 0.1		0.1 to 1
CCC(CC)n1cc(-c2nc(-c3cnn(CCN4CCNCC4=O)c3)cn3nccc23)cn1 [Example 147, 1-(2-(4-(4-(1-(pentan-3-yl)-1H-pyrazol-4-yl)pyrazolo[1,5-a]pyrazin-6-yl)-1H-pyrazol-1-yl)ethyl)piperazin-2-one]	1 to 10	0.01 to 0.1	0.01 to 0.1	1 to 10	
CC[C@H](C1CCC1)n1cc(-c2nc(-c3cnn(C[C@@H](O)CO)c3)cn3nccc23)cn1 (single isomer, unassigned) [Example 196]	1 to 10	0.1 to 1	0.1 to 1		1 to 10
CC[C@@H](C)n1cc(-c2nc(-c3cnn(C[C@H](O)CO)c3)cn3nccc23)cn1 [Example 71, (S)-3-(4-(4-(1-((R)-sec-butyl)-1H-pyrazol-4-yl)pyrazolo[1,5-a]pyrazin-6-yl)-1H-pyrazol-1-yl)propane-1,2-diol]	1 to 10	0.1 to 1	0.1 to 1		1 to 10
CCC(CC)n1cc(-c2nc(-c3cnn(CC[C@H](O)CO)c3)cn3nccc23)cn1 [Example 62, (S)-4-(4-(4-(1-(pentan-3-yl)-1H-pyrazol-4-yl)pyrazolo[1,5-a]pyrazin-6-yl)-1H-pyrazol-1-yl)butane-1,2-diol]	1 to 10	0.01 to 0.1	0.01 to 0.1		0.1 to 1
Cn1cc(-c2cn3nccc3c(-c3cnn(C4CCCCCC4)c3)n2)cn1 [Example 2, 4-(1-cycloheptyl-1H-pyrazol-4-yl)-6-(1-methyl-1H-pyrazol-4-yl)pyrazolo[1,5-a]pyrazine]	1 to 10	0.1 to 1	0.1 to 1	1 to 10	
CCC(CC)n1cc(-c2nc(-c3cnn([C@H]4CCC[C@H]4O)c3)cn3nccc23)cn1 (single isomer, unassigned) [compound 190]	1 to 10	0.1 to 1	0.1 to 1		1 to 10
CCC[C@@H](C)n1cc(-c2nc(-c3cnn(C[C@H](O)CO)c3)cn3nccc23)cn1 [Example 74, (S)-3-(4-(4-(1-((R)-pentan-2-yl)-1H-pyrazol-4-yl)pyrazolo[1,5-a]pyrazin-6-yl)-1H-pyrazol-1-yl)propane-1,2-diol]	1 to 10	0.1 to 1	0.01 to 0.1		1 to 10
CC[C@@H](C1CCC1)n1cc(-c2nc(-c3cnn(C[C@@H](O)CO)c3)cn3nccc23)cn1 (single isomer, unassigned) [Example 197]	1 to 10	0.01 to 0.1	0.01 to 0.1		0.1 to 1
CC[C@H](C)n1cc(-c2nc(-c3cnn(C[C@H](O)CO)c3)cn3nccc23)cn1 [Example 70, (S)-3-(4-(4-(1-((S)-sec-butyl)-1H-pyrazol-4-yl)pyrazolo[1,5-a]pyrazin-6-yl)-1H-pyrazol-1-yl)propane-1,2-diol hydrochloride]	1 to 10	0.01 to 0.1	0.01 to 0.1	0.1 to 1	
CCC(CC)n1cc(-c2nc(-c3cnn([C@H](C)[C@H](O)CO)c3)cn3nccc23)cn1 (single isomer, unassigned) [Example 90]	1 to 10	0.01 to 0.1	0.01 to 0.1	0.1 to 1	
CCC(CC)n1cc(-c2nc(-c3cnn(CCCS(C)(=O)=O)c3)cn3nccc23)cn1 [Example 7, 6-(1-(3-(methylsulfonyl)propyl)-1H-pyrazol-4-yl)-4-(l-(pentan-3-yl)-1H-pyrazol-4-yl)pyrazolo[1,5-a]pyrazine]	1 to 10	0.01 to 0.1	0.01 to 0.1	1 to 10	
CCC(CC)n1cc(-c2nc(-c3cnn(CCN4CC[C@H](OC)C4)c3)cn3nccc23)cn1 [Example 137, (S)-6-(1-(2-(3-methoxypyrrolidin-1-yl)ethyl)-1H-pyrazol-4-yl)-4-(1-(pentan-3-yl)-1H-pyrazol-4-yl)pyrazolo[1,5-a]pyrazine]	1 to 10	0.01 to 0.1	0.01 to 0.1	0.1 to 1	
C[C@@H](CC(F)(F)F)n1cc(-c2nc(-c3cnn(C[C@@H](O)CO)c3)cn3nccc23)cn1 [Example 195, (R)-3-(4-(4-(1-((S)-4,4,4-trifluorobutan-2-yl)-1H-pyrazol-4-yl)pyrazolo[1,5-a]pyrazin-6-yl)-1H-pyrazol-1-yl)propane-1,2-diol hydrochloride]	1 to 10	0.1 to 1	0.1 to 1		1 to 10
CCC(CC)n1cc(-c2nc(-c3cnn(CC4CCOCC4)c3)cn3nccc23)cn1 [Example 4, 4-(1-(pentan-3-yl)-1H-pyrazol-4-yl)-6-(1-((tetrahydro-2H-pyran-4-yl)methyl)-1H-pyrazol-4-yl)pyrazolo[1,5-a]pyrazine]	1 to 10	0.01 to 0.1	0.01 to 0.1	0.1 to 1	
CCC(CC)n1cc(-c2nc(-c3cnn(CCN4CCC(O)CC4)c3)cn3nccc23)cn1 [Example 139, 1-(2-(4-(4-(1-(pentan-3-yl)-1H-pyrazol-4-yl)pyrazolo[1,5-a]pyrazin-6-yl)-1H-pyrazol-1-yl)ethyl)piperidin-4-ol]	1 to 10	0.1 to 1	0.01 to 0.1	0.1 to 1	
CCC(CC)n1cc(-c2nc(-c3cnn(C[C@H]4COCCN4)c3)cn3nccc23)cn1 [Example 30, (S)-3-((4-(4-(1-(pentan-3-yl)-1H-pyrazol-4-yl)pyrazolo[1,5-a]pyrazin-6-yl)-1H-pyrazol-1-yl)methyl)morpholine]	1 to 10	0.01 to 0.1	0.01 to 0.1	0.1 to 1	
CCC(CC)n1cc(-c2nc(-c3cnn(C4CN(C(=O)CNC)C4)c3)cn3nccc23)cn1 [Example 187, 2-(methylamino)-1-(3-(4-(4-(1-(pentan-3-yl)-1H-pyrazol-4-yl)pyrazolo[1,5-a]pyrazin-6-yl)-1H-pyrazol-1-yl)azetidin-1-yl)ethanone bis(2,2,2-trifluoroacetate)]	1 to 10	0.01 to 0.1	0.01 to 0.1	0.1 to 1	
CCC(CC)n1cc(-c2nc(-c3cnn(CC(=O)NC(C)C)c3)cn3nccc23)cn1 [Example 97, N-isopropyl-2-(4-(4-(1-(pentan-3-yl)-1H-pyrazol-4-yl)pyrazolo[1,5-a]pyrazin-6-yl)-1H-pyrazol-1-yl)acetamide]	1 to 10	0.1 to 1	0.01 to 0.1	0.1 to 1	
CCC(CC)n1cc(-c2nc(-c3cnn(C[C@@H](O)CN4CCCC4)c3)cn3nccc23)cn1 [Example 106, (S)-1-(4-(4-(1-(pentan-3-yl)-1H-pyrazol-4-yl)pyrazolo[1,5-a]pyrazin-6-yl)-1H-pyrazol-1-yl)-3-(pyrrolidin-1-yl)propan-2-ol]	1 to 10	0.1 to 1	0.1 to 1		1 to 10
CCC(CC)n1cc(-c2nc(-c3cnn(C[C@@H](O)C(C)(C)O)c3)cn3nccc23)cn1 [Example 57, (R)-3-methyl-1-(4-(4-(1-(pentan-3-yl)-1H-pyrazol-4-yl)pyrazolo[1,5-a]pyrazin-6-yl)-1H-pyrazol-1-yl)butane-2,3-diol]	1 to 10	0.01 to 0.1	0.01 to 0.1	0.1 to 1	
CCC(CC)n1cc(-c2nc(-c3cnn([C@H]4C[C@@H](CO)C4)c3)cn3nccc23)cn1 [compound 166, (cis-3-(4-(4-(1-(pentan-3-yl)-1H-pyrazol-4-yl)pyrazolo[1,5-a]pyrazin-6-yl)-1H-pyrazol-1-yl)cyclobutyl)methanol]	1 to 10	0.01 to 0.1	0.01 to 0.1	0.1 to 1	
